# Assay results from the supplement of paper PMC10307832.
# What was measured:
# Assay in all cases: relative viability (nuclei count vs DMSO), 5 days (fraction); higher = more cells survive
# [1] = compound: C=CC(=O)Nc1cc(-n2c(=O)ccc3cnc4ccc(-c5ccc(NS(C)(=O)=O)cc5)cc4c32)ccc1C [BMX-IN-1] + O=C(c1cc(Cc2n[nH]c(=O)c3ccccc23)ccc1F)N1CCN(C(=O)C2CC2)CC1 [Olaparib] (partner 8 µM)
# Method in brief: (§1)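 Relative viability was taken as the ratio of nuclei in treated wells to nuclei in vehicle wells. Lung cancer cell lines in 1536-well plates received compounds by pin tool one day after seeding, either one drug alone or a fixed anchor-drug dose plus five library-drug doses (not always all listed) in √10 steps. Nuclei were counted on 4× images after 5 days of treatment, and values are medians of duplicate plates.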
# [2] = compound: C=CCc1cccc(/C=N/NC(=O)CN2CCN(Cc3ccccc3)CC2)c1O [PAC-1] + CS(=O)(=O)N1CCN(Cc2cc3nc(-c4cccc5[nH]ncc45)nc(N4CCOCC4)c3s2)CC1 [Pictilisib] (partner 1 µM)
# Method in brief: as §1
# [3] = compound: C=CC(=O)Nc1cc(-n2c(=O)ccc3cnc4ccc(-c5ccc(NS(C)(=O)=O)cc5)cc4c32)ccc1C [BMX-IN-1] + O=C(CCCCCCC(=O)Nc1ccccc1)NO [Vorinostat] (partner 1 µM)
# Method in brief: as §1
# [4] = compound: C=CC(=O)N1CCC[C@@H](n2nc(-c3ccc(Oc4ccccc4)cc3)c3c(N)ncnc32)C1 [Ibrutinib] + CCNC(=O)c1noc(-c2cc(C(C)C)c(O)cc2O)c1-c1ccc(CN2CCOCC2)cc1 [Luminespib] (partner 0.01 µM)
# Method in brief: as §1
Cell Line,relative viability ([1]; first compound 0.02 µM),relative viability ([1]; first compound 0.2 µM),relative viability ([1]; first compound 0.6325 µM),relative viability ([1]; first compound 2 µM),relative viability ([2]; first compound 0.02 µM),relative viability ([2]; first compound 0.06325 µM),relative viability ([2]; first compound 0.2 µM),relative viability ([2]; first compound 2 µM),relative viability ([3]; first compound 0.02 µM),relative viability ([3]; first compound 0.2 µM),relative viability ([3]; first compound 0.6325 µM),relative viability ([3]; first compound 2 µM),relative viability ([4]; first compound 0.005 µM),relative viability ([4]; first compound 0.01581 µM),relative viability ([4]; first compound 0.05 µM),relative viability ([4]; first compound 0.1581 µM),relative viability ([4]; first compound 0.5 µM)
201T,0.84,0.904,0.844,0.83,0.561,0.702,0.75,0.672,1.2,1,1.05,1.05,1.03,1.02,1.07,1.05,0.953
A549,0.286,0.392,0.249,0.306,0.483,0.511,0.509,0.487,–,–,–,–,–,–,–,–,–
A-427,0.709,0.766,0.979,0.783,0.689,0.748,0.724,0.831,0.841,0.897,0.931,0.856,1.09,0.85,0.832,1.1,1.01
ABC-1,0.749,1.02,0.815,0.978,0.624,0.665,0.545,0.74,1.34,1.6,1.39,1.21,0.476,–,0.68,–,0.562
BEN,1.26,1.02,1.05,1.15,0.557,0.534,0.536,0.51,0.621,0.517,0.585,0.535,–,0.292,0.318,0.307,0.462
CAL-12T,0.822,0.71,0.695,0.759,0.202,0.44,0.482,0.568,1.11,0.951,0.756,0.812,0.417,0.14,0.416,0.276,0.302
COR-L23,0.286,0.373,0.439,0.327,0.853,0.848,0.644,0.855,0.448,0.524,0.635,0.421,0.605,0.681,0.722,0.597,0.622
COR-L 105,0.735,0.689,0.791,0.641,0.397,0.397,0.167,0.411,0.943,0.886,0.996,0.716,0.765,0.802,0.744,0.883,0.599
Calu-6,0.533,0.656,0.607,0.565,0.857,0.82,0.875,0.833,–,–,–,–,–,–,–,–,–
ChaGo-K-1,0.435,0.443,0.416,0.417,0.817,0.818,0.925,0.627,0.91,0.984,0.835,0.768,0.586,0.409,0.53,0.655,0.556
EBC-1,0.734,0.689,0.779,0.762,0.371,0.345,0.379,0.335,–,–,–,–,–,–,–,–,–
EKVX,0.99,0.993,0.971,0.828,0.453,0.415,0.374,0.488,0.668,0.653,0.957,0.698,0.66,0.784,0.856,0.81,0.547
EMC-BAC-2,0.514,0.49,0.512,0.494,0.549,0.536,0.566,0.555,0.497,0.58,0.414,0.45,1.15,1.14,1.25,1.15,1.05
EPLC-272H,0.823,0.834,0.509,0.677,–,0.349,0.32,0.268,0.351,0.288,0.417,0.383,0.485,0.433,0.211,0.313,0.211
H3255,0.584,0.588,0.548,0.628,0.454,0.455,0.448,0.471,0.787,0.812,0.902,0.76,1.13,0.945,–,1.19,0.704
HARA,1.01,0.859,0.936,0.734,0.414,0.376,0.323,0.413,0.507,0.549,0.446,0.506,0.975,0.748,0.548,0.746,0.324
HCC-15,0.645,0.827,0.706,0.787,0.683,0.731,0.743,0.783,0.833,0.93,0.86,0.869,0.362,0.278,0.488,0.308,0.243
HCC-44,1.02,0.994,1.03,1.07,0.455,0.697,0.666,0.648,1.16,1.14,1.19,1.12,1.11,1.02,0.977,–,1.16
HCC-78,1.09,0.744,0.804,0.913,0.179,0.196,0.236,0.195,0.383,0.438,0.431,0.41,–,–,–,–,–
HCC-366,0.416,0.406,0.442,0.361,0.203,0.142,0.149,0.184,0.791,0.342,0.373,0.33,–,–,–,–,–
HCC-827,0.597,0.635,0.652,0.629,1.12,1.01,0.99,0.983,0.485,0.872,1.11,0.798,0.657,0.355,0.589,0.673,0.212
